Data on two compounds can be found in paper PMC9785471, “Exploring Cryptococcus neoformans CYP51 and Its Cognate Reductase as a Drug Target” (Journal of Fungi, 2022).

The target in this experiment is T1, CnCYP51 (lanosterol 14α-demethylase, CnCYP51-6×His) (Cryptococcus neoformans, UniProt J9VHT4).
T1 construct: gene CNAG_00040; full-length, C-terminal hexahistidine-tagged, codon-optimised, expressed in S. cerevisiae
As to the kind of experiment: Type II absorbance difference spectral titration of purified CYP51, Hill fit. The format is binding.

T1 sequence (J9VHT4 entry or part of it): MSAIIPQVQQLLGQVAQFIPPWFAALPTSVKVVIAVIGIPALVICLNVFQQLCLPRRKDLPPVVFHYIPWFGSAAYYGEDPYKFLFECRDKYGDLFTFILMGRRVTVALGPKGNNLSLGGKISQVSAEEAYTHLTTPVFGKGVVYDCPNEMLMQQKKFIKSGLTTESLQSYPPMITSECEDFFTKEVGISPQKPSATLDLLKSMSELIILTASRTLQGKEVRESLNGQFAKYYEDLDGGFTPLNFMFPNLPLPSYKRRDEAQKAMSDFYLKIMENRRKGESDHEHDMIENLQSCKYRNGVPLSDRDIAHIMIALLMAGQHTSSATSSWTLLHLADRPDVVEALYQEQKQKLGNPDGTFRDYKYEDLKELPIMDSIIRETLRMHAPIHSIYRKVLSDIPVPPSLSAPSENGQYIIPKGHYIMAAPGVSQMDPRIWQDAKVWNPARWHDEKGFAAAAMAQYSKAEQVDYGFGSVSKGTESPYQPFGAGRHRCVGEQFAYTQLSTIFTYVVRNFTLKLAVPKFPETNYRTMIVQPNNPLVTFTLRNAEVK

Turning to `CC[C@@H]([C@H](C)O)n1ncn(-c2ccc(N3CCN(c4ccc(OC[C@@H]5CO[C@@](Cn6cncn6)(c6ccc(F)cc6F)C5)cc4)CC3)cc2)c1=O` [PCZ, Posaconazole], the dissociation constant Kd amounted to 200 ± 10 nM. On to `C[C@@H](c1ncncc1F)[C@](O)(Cn1cncn1)c1ccc(F)cc1F` [VCZ, Voriconazole], for which the dissociation constant Kd stood at 390 ± 13 nM.

The Kd is a measure of binding affinity in units of concentration.
